Results taken from US4550166A, “(Pyridinyl)-1,2,4-triazolo[4,3-a]pyridines” (American Cyanamid Company, priority 1984, dated 1985).

Assays:
[1] = tested on: clonic seizures caused by pentylenetetrazole in rats; assay: Protection Against Clonic Siezures Caused by Pentylenetetrazole in Rats; assay type: in vivo; conditions: Dose 25 mg/kg, orally or intraperitoneally, pentylenetetrazole 23 mg/kg i.v. at 30 or 60 minutes
Experimental: The antianxiety properties of the novel compounds of the present invention have been established in a test which indicates anxiolytic activity by the measure of protection from convulsions resulting from the administration of pentylenetetrazole. Single or graded dose levels of the test compounds were administered orally or intraperitoneally in a 2% starch vehicle, containing 0.5% v/v polyethylene glycol and one drop of Polysorbate 80 to groups of at least four rats. At 30 or 60 minutes, the rats were treated intravenously with pentylenetetrazole at a dose of 23 mg/kg of body weight. This dose is estimated to cause clonic seizures in 99% of unprotected rats.
It has been reported [R. T. Hill and D. H. Tedeschi, "Animal Testing and Screening Procedures in Evaluating Psychotropic Drugs" in An Introduction to Psychopharmacology, Eds. R. R. Rech and K. E. Moore, Raven Press, New York, pp 237-288 (1971)] that there is a high degree of correlation between antagonism of pentylenetetrazole seizures in rats and antianxiety effects in higher warm-blooded animals.

[2] = tested on: Brain-specific Receptors of Rats (^3 H-benzodiazepine binding); assay: Inhibition of the Binding of ^3 H--Benzodiazepine to Brain-specific Receptors of Rats; set-up: species or system rats (male albino, Wistar strain); conditions: 1 μM; whole cortex of rats, P2 fraction; ^3 H-diazepam (1.5 nM) or ^3 H-flunitrazepam (1.0 nM)
[3] = tested on: conflict situation in rats; assay: Non-Conditioned Passive Avoidance Test in Rats; assay type: in vivo, Wistar strain rats; set-up: key: Active: considered active if the number of shocks received by the test group is significantly higher than the control group by the Mann-Witney U test; conditions: Dose 25 mg/kg, oral or intraperitoneal, 30 or 60 minutes
Experimental: Another test which has been used to assess anti-anxiety effects is a non-conditioned passive avoidance procedure described by J. R. Vogel, B. Beer and D. E. Clody, "A Simple and Reliable Conflict Procedure for Testing Antianxiety Agents", Psychopharmacologia, 21, 1-7 (1971). A conflict situation was induced in rats by a modification of this method.
Groups of 6 naive, Wistar strain rats, weighing 200-240 g each, were deprived of water for 48 hours and food for 24 hours. The test compounds were administered in single or graded, oral or intraperitoneal doses, suspended in a 2% starch vehicle containing 0.5% v/v polyethylene glycol and one drop of Polysorbate 80. Control animals received the vehicle alone. At 30 or 60 minutes each rat was placed in an individual plexiglass chamber. Water was available ad libitum from a tap located in the rear of the chamber. A 0.7 milliampere DC shocking current was established between the stainless steel grid floor and the tap. After 20 licks of non-shocked drinking, a shock was delivered for 2 seconds and then further shocks were delivered on a ratio of one shock for 2 seconds for every 20 licks. This was continued for a total of 3 minutes. The number of shocks taken by each rat during the 3 minute interval was recorded and compared to a control group.

| Structure (SMILES) | % of Rats Protected [1] | % Inhibition [2] | Result [3] |
| --- | --- | --- | --- |
| Cc1nnc2ccc(-c3cccnc3)cn12 [3-Methyl-6-(3-pyridinyl)-1,2,4-triazolo[4,3-a]pyridine] | 75% | 20% |  |
| Cc1nnc2cc(-c3ccccn3)ccn12 [3-Methyl-7-(2-pyridinyl)-1,2,4-triazolo[4,3-a]pyridine] |  | 27% |  |
| Cc1nnc2cc(-c3ccncc3)ccn12 [3-Methyl-7-(4-pyridinyl)-1,2,4-triazolo[4,3-a]pyridine] |  | 24% |  |
| Cc1nnc2c(-c3ccccn3)cccn12 [3-Methyl-8-(2-pyridinyl)-1,2,4-triazolo[4,3-a]pyridine] |  | 22% | Active |
| Cc1nnc2c(-c3cccnc3)cccn12 [3-Methyl-8-(3-pyridinyl)-1,2,4-triazolo[4,3-a]pyridine] |  | 24% | Active |
| c1ccc(-c2cccc3nncn23)nc1 [5-(2-Pyridinyl)-1,2,4-triazolo[4,3-a]pyridine] |  | 26% |  |
| c1cncc(-c2ccc3nncn3c2)c1 [6-(3-Pyridinyl)-1,2,4-triazolo[4,3-a]pyridine] | 33% | 13% |  |
| c1ccc(-c2ccn3cnnc3c2)nc1 [7-(2-Pyridinyl)-1,2,4-triazolo[4,3-a]pyridine] | 25% | 15% |  |
| c1ccc(-c2cccn3cnnc23)nc1 [8-(2-Pyridinyl)-1,2,4-triazolo[4,3-a]pyridine] |  | 26% |  |
| c1cncc(-c2cccn3cnnc23)c1 [8-(3-Pyridinyl)-1,2,4-triazolo[4,3-a]pyridine] |  | 18% |  |
